PMC10447463, “Data-mining unveils structure–property–activity correlation of viral infectivity enhancing self-assembling peptides” (Nature Communications, 2023)
Read-outs that look alike come from different tables or passages of the source.

Experiments:
[1] = tested on: HIV-1 infection of TZM-bl cells; experiment: HIV-1 infectivity enhancement assay, β-galactosidase luminescence; assay type: cell-based; details: for Rel-EFC: infection relative to EF-C (QCKIKQIINMWQ = 1); for Log10 Infection Rel EFC: log10 of infection relative to EF-C; for Log Infectivity: Log10 infection relative to EF-C, TZM-bl cells, asymmetric std dev errors; for Log10 Infection Rel EF-C: HIV-1 infection of TZM-bl cells; for Log10 of Rel to EFC (Feb2021): Log10 of infection relative to EF-C, all peptides of FigS16; for Abs. Inf. / RLU s-1: absolute infection rate, peptide 1.3 µM on cells, virus preincubated 10 min with fibrils, read 3 days post infection, mean of triplicate; for Abs. Inf.: absolute infection signal, HIV-1 on TZM-bl cells, β-galactosidase luminescence; for Log10 Inf. rel. to EF-C: log10 of HIV-1 infection of TZM-bl cells relative to EF-C (EF-C = 0)
[2] = β-sheet content by ATR-FT-IR; assay type: physicochemical; details: for b -sheet / %: Fig. S7 panel A, β-sheet content by ATR-FT-IR; for ß-sheet / %: ATR-FT-IR of lyophilised 1 mg/mL PNF solution, peak integral ratio 1625-1635 cm-1, measured once
Outline: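 Lyophilized PNF (from 1 mg/mL) scanned 64× on diamond ATR, 2 cm^-1 resolution; β-sheet content per earlier report. CR: spin through 3 kDa MWCO, 16200 x g, 4 °C, 45 min; lyophilize filtrate + unfiltered; DMSO; fluorescamine 20 min RT; ex 365/em 470.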

[3] = assay type: physicochemical; details: for ThT Cat. / ThT-Fluorescence (categorical): ThT-active if fluorescence at least twice the control; for Rel. ThT: n-fold ThT fluorescence vs control (PBS, 10% DMSO), 4 µL 1 mg/mL fibrils + 20 µL 50 µM ThT, 15 min RT, ex 440 / em 488 nm, triplicate
Outline: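 Fibrils (1 mg/mL solution) were mixed with 50 µM ThT in PBS for 15 min at RT, and fluorescence was read at λex 440/λem 488 nm against a PBS blank, as a triplicate mean ± SD. Zeta potential came from electrophoretic mobility (Smoluchowski) after 1 d aggregation at 1 mg/mL in PBS pH 7.4, diluted into 1 mM KCl.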

[4] = Fig. S7 panel A (plotted against β-sheet content)
[5] = Fig. S7 panel B (plotted against CR), rounded to two decimals
[6] = Log10 of infection rate relative to EF-C, Figure 3A source data
[7] = infection rate relative to EF-C, log10, data of Figure 2D
[8] = infection rate relative to EF-C, log10, source data of Figure 2C
[9] = ThT fluorescence category, 1 if Rel. ThT >2
[10] = HIV-1 infection relative to EF-C, Fig 23 plot, panels A and B, mean of 3 values
[11] = HIV-1 infection relative to EF-C, Fig 23 plot, single data point, replicate 1
[12] = HIV-1 infection relative to EF-C, Fig 23 plot, single data point, replicate 2
[13] = HIV-1 infection relative to EF-C, Fig 23 plot, single data point, replicate 3
[14] = n-fold infection vs virus only, relative to that of EF-C, 1.3 µM peptide

Substance | Rel-EFC ([1]; 1.3 µM peptide) | Log10 Infection Rel EFC ([1]; 1.3 µM peptide) | Log Infectivity [1, 4] | Log Infectivity [1, 5] | Log10 Infection Rel EF-C [1, 6] | Log10 Infection Rel EF-C [1, 7] | Log10 Infection Rel EF-C [1, 8] | Log10 of Rel to EFC (Feb2021) [1] | b -sheet / % [2] [%] | Tht category (> 2 to blank = +) ([3]; Fig S10 panel D) | ThT Cat. ([3]; Fig S10 panel E) | ThT Cat, ([3]; ThT category, 1 if Rel. ThT >2) | ThT Cat. [3, 9] | ThT Cat. / ThT-Fluorescence (categorical) [3] | Inf. rel. EF-C [1, 10] | Inf. rel. EF-C [1, 11] | Inf. rel. EF-C [1, 12] | Inf. rel. EF-C [1, 13] | Tht category (> 2 to blank = +) ([3]; FigS12 panel A) | ThT Cat, ([3]; FigS12 panel B) | also measured
KFKFQFFF | 0,4 | -0,39 | -0.3936 | -0.39 | -0.39 | -0.3936 | -0.3936 | -0.39 | 49.11 | 1 (ThT. Cat is 1, if Rel. ThT >2) | 1 (ThT. Cat is 1, if Rel. ThT >2) | 1 (ThT. Cat is 1, if Rel. ThT >2) | 1 (ThT. Cat is 1, if Rel. ThT >2) | 1 (ThT. Cat is 1, if Rel. ThT >2) |  |  |  |  |  |  | 
KIKIQIC | 0,61 | -0,22 | -0.2164 | -0.22 | -0.22 | -0.2164 | -0.2164 | -0.22 | 52.93 | 1 (ThT. Cat is 1, if Rel. ThT >2) | 1 (ThT. Cat is 1, if Rel. ThT >2) | 1 (ThT. Cat is 1, if Rel. ThT >2) | 1 (ThT. Cat is 1, if Rel. ThT >2) | 1 (ThT. Cat is 1, if Rel. ThT >2) |  |  |  |  |  |  | Infection RLU/s, 1.3 µm abs ([1]; peptide 1.3 µm (so in the source), mean of the 3 replicates): 9447 RLU/s; FTIR ß-sheet content [2]: 52.93%
RGDKIKIQINM | 0,41 | -0,38 | -0.3838 | -0.38 | -0.38 | -0.3838 | -0.3838 | -0.38 | 45.52 | 1 (ThT. Cat is 1, if Rel. ThT >2) | 1 (ThT. Cat is 1, if Rel. ThT >2) | 1 (ThT. Cat is 1, if Rel. ThT >2) | 1 (ThT. Cat is 1, if Rel. ThT >2) | 1 (ThT. Cat is 1, if Rel. ThT >2) |  |  |  |  |  |  | 
KAKAQANM | 0,01 | -2,05 | -2.046 |  | -2.05 | -2.046 | -2.046 |  | 32.8491 | 0 (ThT-inactive (N-Fold <2)) |  | 0 (ThT-inactive (N-Fold <2)) | 0 (ThT-inactive (N-Fold <2)) | 0 (ThT-inactive (N-Fold <2)) | 0.02204 | 0.03965 | 0.008224 | 0.01824 | 0 (ThT-inactive (N-Fold <2)) | 0 (ThT-inactive (N-Fold <2)) | Abs. Inf. / RLU s-1 [1]: 497 RLU s-1; Inf. rel. EF-C [1, 14]: 0.01; ß-sheet / % [2]: 33%; Rel. ThT [3]: 1.1
QCKAKAQANM | 0,01 | -1,83 | -1.835 | -1.83 | -1.83 | -1.835 | -1.835 |  | 35.27 | 0 (ThT-inactive (N-Fold <2)) | 0 (ThT-inactive (N-Fold <2)) | 0 (ThT-inactive (N-Fold <2)) |  | 0 (ThT-inactive (N-Fold <2)) | 0.02465 | 0.03504 | 0.01727 | 0.02164 | 0 (ThT-inactive (N-Fold <2)) | 0 (ThT-inactive (N-Fold <2)) | Abs. Inf. / RLU s-1 [1]: 563 RLU s-1; Abs. Inf. [1]: 563.3; Inf. rel. EF-C [1, 14]: 0.01; ß-sheet / % [2]: 35%; ThT Cat. ([3]; ThT category, 1 if Rel. ThT >2): 0 (ThT-inactive (N-Fold <2)); Rel. ThT [3]: 1.4
CKAKAQANMWQ | 0,04 | -1,36 | -1.359 | -1.36 | -1.36 | -1.359 | -1.359 |  | 39.38 | 0 (ThT-inactive (N-Fold <2)) | 0 (ThT-inactive (N-Fold <2)) | 0 (ThT-inactive (N-Fold <2)) |  | 0 (ThT-inactive (N-Fold <2)) | 0.02574 | 0.02321 | 0.03098 | 0.02305 | 0 (ThT-inactive (N-Fold <2)) | 0 (ThT-inactive (N-Fold <2)) | Abs. Inf. / RLU s-1 [1]: 600 RLU s-1; Abs. Inf. [1]: 600; Log10 Inf. rel. to EF-C [1]: -1.359; Inf. rel. EF-C [1, 14]: 0.04; ß-sheet / % [2]: 39%; ThT Cat. ([3]; ThT category, 1 if Rel. ThT >2): 0 (ThT-inactive (N-Fold <2)); Rel. ThT [3]: 1.9
QCKFKQFF | 0,01 | -1,91 | -1.907 |  | -1.91 | -1.907 | -1.907 |  | 32.34 | 1 (ThT. Cat is 1, if Rel. ThT >2) |  | 1 (ThT. Cat is 1, if Rel. ThT >2) |  | 1 (ThT. Cat is 1, if Rel. ThT >2) |  |  |  |  | 1 (ThT. Cat is 1, if Rel. ThT >2) | 1 (ThT. Cat is 1, if Rel. ThT >2) | Abs. Inf. [1]: 170; Log10 Inf. rel. to EF-C [1]: -1.907; ThT Cat. ([3]; ThT category, 1 if Rel. ThT >2): 1 (ThT. Cat is 1, if Rel. ThT >2)
QCKAKAQANMWQ | 0,07 | -1,14 | -1.144 | -1.14 | -1.14 | -1.144 | -1.144 |  | 32.8999 | 0 (ThT-inactive (N-Fold <2)) | 0 (ThT-inactive (N-Fold <2)) | 0 (ThT-inactive (N-Fold <2)) |  | 0 (ThT-inactive (N-Fold <2)) | 0.1207 | 0.1632 | 0.09951 | 0.09928 | 0 (ThT-inactive (N-Fold <2)) | 0 (ThT-inactive (N-Fold <2)) | Abs. Inf. / RLU s-1 [1]: 2767 RLU s-1; Abs. Inf. [1]: 2767; Log10 Inf. rel. to EF-C [1]: -1.144; Inf. rel. EF-C [1, 14]: 0.07; ß-sheet / % [2]: 33%; ThT Cat. ([3]; ThT category, 1 if Rel. ThT >2): 0 (ThT-inactive (N-Fold <2)); Rel. ThT [3]: 1.5
RGDKIKIQINMWQ | 0,76 | -0,12 | -0.1175 | -0.12 | -0.12 | -0.1175 | -0.1175 | -0.12 | 49.07 | 0 (ThT-inactive (N-Fold <2)) | 0 (ThT-inactive (N-Fold <2)) | 0 (ThT-inactive (N-Fold <2)) | 0 (ThT-inactive (N-Fold <2)) | 0 (ThT-inactive (N-Fold <2)) |  |  |  |  |  |  | 
HHHHKIKIQINMYYYY | 1,11 | 0,04 | 0.04454 | 0.04 | 0.04 | 0.04454 | 0.04454 | 0.04 | 46.73 | 1 (ThT. Cat is 1, if Rel. ThT >2) | 1 (ThT. Cat is 1, if Rel. ThT >2) | 1 (ThT. Cat is 1, if Rel. ThT >2) | 1 (ThT. Cat is 1, if Rel. ThT >2) | 1 (ThT. Cat is 1, if Rel. ThT >2) |  |  |  |  |  |  | 
